Measurements taken from US10538561B2, “Peptide for treating inflammatory diseases” (priority 2015, dated 2020).

Assays:
[1] = Cell viability (MTT assay) in HaCaT; format: cell-based, Human; conditions: human, HaCaT keratinocytes, HaCaT, 1% FBS
Procedure: (§1) Cell Lines/Cells: Human Keratinocytes (HaCaT); Human melanoma (SK-MEL-28); Human PBMCs. Test Item: IS181 Treatment regimen: Single addition—24 h, ^#Multiple additions (3)−72 h; Concentration range: 1 ng/ml-2 mg/ml (triplicate wells); Sera Condition: […] Method of estimation: MTT assay. […] Positive control: Triton-X-100, Doxorubicin Hydrochloride.

[2] = system: Human Keratinocytes (HaCaT); experiment: Cell viability (MTT assay) in HaCaT; format: cell-based; conditions: for IC50 value / cytotoxicity: HaCaT
Procedure: as §1

[3] = Cell viability (MTT assay) in SK-MEL-28; format: cell-based, Human; conditions: human, SK-MEL-28 melanoma cells
Procedure: as §1

[4] = system: Human melanoma (SK-MEL-28); experiment: Cell viability (MTT assay) in SK-MEL-28; format: cell-based
Procedure: as §1

[5] = system: Human endothelial cells (EA.hy 926); experiment: Inhibition of endothelial cell migration (wound); format: cell-based; conditions: for % Inhibition of migration with respect to respective 0 h control: EA.hy926, 14 h
Procedure: Cell line: Human endothelial cells (EA.hy 926); test item: IS 181; treatment regimen: single addition; concentration range: 0.1 μg/ml-1 mg/ml; sera condition: medium containing 10% FBS. […] The cells were then subjected to serum starved with medium containing 1% FBS for 24 hours. 24 hours post serum starvation, the wounds (straight line) were created in the middle of the well using a sterile 200 μl pipette tip. Cells were washed twice using DMEM followed by treatment with different concentrations of IS 181 in DMEM containing 10% FBS. Images of wound were taken at 0 h and 14 h at three points in single well and distance of wound closure was measured using Image J software. End point: image analysis of cell migration of different concentrations of IS 181 treated cells at 0 hour and after 14 hours of treatment. Percentage inhibition in cell migration of different concentrations of IS 181 treated cells were calculated after 14 h of treatment with respect to respective 0 hours (FIG. 13). […] (FIGS. 14A-14B).

[6] = Cell viability of splenocytes (MTT); format: cell-based, mouse; conditions: mouse, mouse splenocytes, splenocytes, 24 h
Procedure: (§2) Cell lines: mouse splenocytes; test item: IS181; treatment regimen: single addition—24 hours; concentration range: 10 μg/ml-5000 μg/ml.A) Identification of non-cytotoxic concentrations: splenocytes were treated with IS181 for 24 hours. Effect on cell viability was assessed by MTT assay. Concentrations leading to >75% cell viability were selected for IL-17 assay. B) IL-17 assay: splenocytes were treated with IS181 in presence of ConA stimulation for 24 hours. Supernatants were collected and stored at −20° C. till analysed. Levels of IL-17 were analysed in supernatants by ELISA. Percent inhibition of IL-17 secretion was calculated with reference to ConA treated levels. Positive control: curcumin.

mouse splenocytes = experiment: Cell viability of splenocytes (MTT); format: cell-based; conditions: splenocytes
Procedure: as §2

IL-17 = IL-17 secretion in ConA stimulated splenocytes; format: cell-based, mouse; design: inhibition of IL-17 secretion as compared to Control (ConA) levels: dose or concentration left out as unconfirmed; conditions: for % Inhibition of IL-17 wrt Control (ConA) / Conc. of IL-17: splenocytes + ConA, 24 h
Procedure: as §2

[7] = system: Imiquimod (IMQ) induced psoriasis; experiment: Imiquimod (IMQ) induced psoriasis model; format: in vivo, BALB/C mice

Substance: H-WVQRVVEKFLK-OH [IS181, H-Trp-Val-Gln-Arg-Val-Val-Glu-Lys-Phe-Leu-Lys-OH]
- cytotoxicity at 24 h, 0.1 μg/ml ([1]; 24 h, 0.1 μg/ml): -1.4%
- cytotoxicity at 24 h, 0.5 μg/ml ([1]; 24 h, 0.5 μg/ml): -4.61%
- cytotoxicity at 24 h, 1 μg/ml ([1]; 24 h, 1 μg/ml): 4.88%
- cytotoxicity at 24 h, 5 μg/ml ([1]; 24 h, 5 μg/ml): 8.43%
- cytotoxicity at 24 h, 10 μg/ml ([1]; 24 h, 10 μg/ml): 5.75%
- cytotoxicity at 24 h, 50 μg/ml ([1]; 24 h, 50 μg/ml): 1.79%
- cytotoxicity at 24 h, 100 μg/ml ([1]; 24 h, 100 μg/ml): -0.58%
- cytotoxicity at 24 h, 500 μg/ml ([1]; 24 h, 500 μg/ml): 18.9%
- cytotoxicity at 24 h, 1000 μg/ml ([1]; 24 h, 1000 μg/ml): 87.8%
- cytotoxicity at 24 h, 2000 μg/ml ([1]; 24 h, 2000 μg/ml): 91.3%
- cytotoxicity at 72 h, 0.1 μg/ml ([1]; 72 h, 0.1 μg/ml): -56.2%
- cytotoxicity at 72 h, 0.5 μg/ml ([1]; 72 h, 0.5 μg/ml): -75.4%
- cytotoxicity at 72 h, 1 μg/ml ([1]; 72 h, 1 μg/ml): -66.1%
- cytotoxicity at 72 h, 5 μg/ml ([1]; 72 h, 5 μg/ml): -37.5%
- cytotoxicity at 72 h, 10 μg/ml ([1]; 72 h, 10 μg/ml): -44.5%
- cytotoxicity at 72 h, 50 μg/ml ([1]; 72 h, 50 μg/ml): -33%
- cytotoxicity at 72 h, 100 μg/ml ([1]; 72 h, 100 μg/ml): -42.5%
- cytotoxicity at 72 h, 500 μg/ml ([1]; 72 h, 500 μg/ml): 58.5%
- cytotoxicity at 72 h, 1000 μg/ml ([1]; 72 h, 1000 μg/ml): 91%
- cytotoxicity at 72 h, 2000 μg/ml ([1]; 72 h, 2000 μg/ml): 89.4%
- IC50 ([2]; 24 h): 470 µM
- Selectivity Index -IC50 (PBMC)/IC50 (HaCaT/SK-MEL-28 cells) ([2]; 24 h): 3
- selectivity of cytotoxic activity against human keratinocytes ([2]; 24 h): selective cytotoxic activity
- IC50 ([2]; 72 h): 290 µM
- Selectivity Index -IC50 (PBMC)/IC50 (HaCaT/SK-MEL-28 cells) ([2]; 72 h): 2
- IC50 value ([2]; 24 h): 670 µg/mL
- cytotoxicity ([2]; 24 h, at concentrations 2 mg/ml): 87%-91%
- IC50 value ([2]; 72 h): 420 µg/mL
- cytotoxicity ([2]; 72 h, concentrations ≥0.5 mg/ml): 58%-90%
- cytotoxicity at 24 h, 0.001 μg/ml ([3]; SK-MEL-28, 24 h, 0.001 μg/ml): -4.04%
- cytotoxicity at 24 h, 0.01 μg/ml ([3]; SK-MEL-28, 24 h, 0.01 μg/ml): -1.91%
- cytotoxicity at 24 h, 0.05 μg/ml ([3]; SK-MEL-28, 24 h, 0.05 μg/ml): 2.39%
- cytotoxicity at 24 h, 0.1 μg/ml ([3]; SK-MEL-28, 24 h, 0.1 μg/ml): -4.93%
- cytotoxicity at 24 h, 0.5 μg/ml ([3]; SK-MEL-28, 24 h, 0.5 μg/ml): -1.29%
- cytotoxicity at 24 h, 1 μg/ml ([3]; SK-MEL-28, 24 h, 1 μg/ml): -12.5%
- cytotoxicity at 24 h, 5 μg/ml ([3]; SK-MEL-28, 24 h, 5 μg/ml): -16.3%
- cytotoxicity at 24 h, 10 μg/ml ([3]; SK-MEL-28, 24 h, 10 μg/ml): -14%
- cytotoxicity at 24 h, 50 μg/ml ([3]; SK-MEL-28, 24 h, 50 μg/ml): -6.96%
- cytotoxicity at 24 h, 100 μg/ml ([3]; SK-MEL-28, 24 h, 100 μg/ml): -2.97%
- cytotoxicity at 24 h, 1000 μg/ml ([3]; SK-MEL-28, 24 h, 1000 μg/ml): -11.9%
- cytotoxicity at 72 h, 0.1 μg/ml ([3]; SK-MEL-28, 72 h, 0.1 μg/ml): -10.9%
- cytotoxicity at 72 h, 0.5 μg/ml ([3]; SK-MEL-28, 72 h, 0.5 μg/ml): -14.2%
- cytotoxicity at 72 h, 1 μg/ml ([3]; SK-MEL-28, 72 h, 1 μg/ml): -20%
- cytotoxicity at 72 h, 5 μg/ml ([3]; SK-MEL-28, 72 h, 5 μg/ml): 9.03%
- cytotoxicity at 72 h, 10 μg/ml ([3]; SK-MEL-28, 72 h, 10 μg/ml): 6.16%
- cytotoxicity at 72 h, 50 μg/ml ([3]; SK-MEL-28, 72 h, 50 μg/ml): -4.36%
- cytotoxicity at 72 h, 100 μg/ml ([3]; SK-MEL-28, 72 h, 100 μg/ml): 5.78%
- cytotoxicity at 72 h, 500 μg/ml ([3]; SK-MEL-28, 72 h, 500 μg/ml): 94%
- cytotoxicity at 72 h, 1000 μg/ml ([3]; SK-MEL-28, 72 h, 1000 μg/ml): 91%
- cytotoxicity at 72 h, 2000 μg/ml ([3]; SK-MEL-28, 72 h, 2000 μg/ml): 92%
- IC50 ([4]; 24 h): > 700 µM
- IC50 value ([4]; 24 h): >1000 µg/mL
- Selectivity Index -IC50 (PBMC)/IC50 (HaCaT/SK-MEL-28 cells) ([4]; 24 h): ≤2
- IC50 ([4]; 72 h): 160 µM
- Selectivity Index -IC50 (PBMC)/IC50 (HaCaT/SK-MEL-28 cells) ([4]; 72 h): 4
- IC50 value ([4]; SK-MEL-28, 72 h): 230 µg/mL
- cytotoxicity ([4]; SK-MEL-28, 72 h, concentrations ≥0.5 mg/ml): > 90%
- cytotoxic effects ([4]; SK-MEL-28, after 24 h of treatment): no cytotoxic effects
- inhibition of migration of EA.hy926 cells ([5]; 10 μg/ml-1 mg/ml): 17%-54%
- % Inhibition of migration with respect to respective 0 h control ([5]; 0.1 μg/ml): 0%
- % Inhibition of migration with respect to respective 0 h control ([5]; 1 μg/ml): 0%
- % Inhibition of migration with respect to respective 0 h control ([5]; 10 μg/ml): 17%
- % Inhibition of migration with respect to respective 0 h control ([5]; 50 μg/ml): 34%
- % Inhibition of migration with respect to respective 0 h control ([5]; 100 μg/ml): 41%
- % Inhibition of migration with respect to respective 0 h control ([5]; 1 mg/ml): 54%
- viability at 24 h, 10 μg/ml ([6]; 10 μg/ml): 97%
- viability at 24 h, 50 μg/ml ([6]; 50 μg/ml): 110%
- viability at 24 h, 100 μg/ml ([6]; 100 μg/ml): 110%
- viability at 24 h, 500 μg/ml ([6]; 500 μg/ml): 94.6%
- viability at 24 h, 1 mg/ml ([6]; 1 mg/ml): 79.4%
- viability at 24 h, 2 mg/ml ([6]; 2 mg/ml): 51.6%
- viability at 24 h, 5 mg/ml ([6]; 5 mg/ml): 25.6%
- cytotoxicity (mouse splenocytes): < 25%
- cytotoxicity (mouse splenocytes; 2 mg/ml): 48.4%
- cytotoxicity (mouse splenocytes; 5 mg/ml): 74.4%
- inhibition of IL-17 secretion as compared to Control (ConA) levels (IL-17; splenocytes): 48.2%-71.4%
- % Inhibition of IL-17 wrt Control (ConA) (IL-17; 10 μg/ml): 71.4%
- Conc. of IL-17 (IL-17; 10 μg/ml): 13.3 pg/mL
- % Inhibition of IL-17 wrt Control (ConA) (IL-17; 50 μg/ml): 59.5%
- Conc. of IL-17 (IL-17; 50 μg/ml): 18.8 pg/mL
- % Inhibition of IL-17 wrt Control (ConA) (IL-17; 100 μg/ml): 62.1%
- Conc. of IL-17 (IL-17; 100 μg/ml): 17.6 pg/mL
- % Inhibition of IL-17 wrt Control (ConA) (IL-17; 500 μg/ml): 48.2%
- Conc. of IL-17 (IL-17; 500 μg/ml): 24.1 pg/mL
- % Inhibition of IL-17 wrt Control (ConA) (IL-17; 1000 μg/ml): 58.8%
- Conc. of IL-17 (IL-17; 1000 μg/ml): 19.2 pg/mL
- ear thickness (life phase) ([7]; 1.2 mg/kg i.m. and i.p): mild reduction in ear thickness
- spleen weight ([7]; i.p): mild reduction in spleen weight
